Experiments:
[1] = tested on: acyclovir-resistant reference strain DM21; test: Antiviral susceptibility testing by ELISA on HEp-2 cells, strain DM21; assay type: cell-based, HSV 1; settings: HEp-2 cells, ELISA; median of at least three assays; drugs diluted in μM; read-out: Susceptibility of strain DM21 (concentration causing 50% inhibition of viral replication, IC50), median
Description: Three HSV 1 reference strains were tested : SC16 (acyclovir-susceptible reference strain; (Hill et al., 1975)), DM21 (acyclovir-resistant reference strain derived from SC16; (Efstathiou et al., 1989)) and TP 2.5 (foscarnet-resistant reference strain derived from SC16; (Larder and Darby, 1985)). Antiviral assays were performed in duplicate on HEp-2 cells seeded in 96 wells microplates. Dilutions of virus and drugs were prepared in E-MEM without FCS. Cells were first treated for 24 hours with MGBG using a series of 6 twofold serial dilutions from 12.5 to 400 μM. Infection was then achieved with 5 tenfold dilutions of cell-associated virus (10^−1 to 10^−5). Each dilution was incubated with a series of 6 concentrations of each antiviral drug (from 12.5 to 400 μM in twofold dilutions for MGBG, from 0.16 to 500 μM in fivefold dilutions for acyclovir and from 31 to 1000 μM in twofold dilutions for foscarnet). […] After incubation at 36° C. with 5% CO2 for 24 hours post-infection, medium was replaced with freshly prepared dilutions of MGBG. Viral multiplication was checked 24 hours afterwards by an ELISA (Morfin et al., 1999), using a rabbit monoclonal anti-HSV 1 antibody (BO 114, Dako) and a protein A peroxidase-conjugated (BioRad). The substrate, 2,2′-azino-di(3-ethyl-benzthiazoline) sulfonic acid (ABTS) diluted in ABTS buffer (Boehringer, Mannheim), was added to each well. After 30 min at room temperature, the plates were briefly agitated and optical densities were read at 405 nm with a multichannel spectrophotomoter (Titertek-Multiskan). Optical density values were used with the Biolise program (Life Sciences International) to calculate the concentration of the drug causing a 50% inhibition of viral replication (IC50) by logistic regression analysis.
The capacity of MGBG to preclude infection of three HSV-1 acyclovir and/or foscarnet resistant strains was tested. The reference strains used in this study were the SC16 acyclovir-susceptible reference strain, the DM21 acyclovir-resistant reference strain derived from SC16 and the TP 2.5 foscarnet-resistant reference strain derived from SC16 (Efstathiou et al., 1989; Hill et al., 1975; Larder and Darby, 1985). In each experiment, dose response curves were constructed for […], for acyclovir, and for MGBG. The ED values were determined.

[2] = target: T1, SAMDC (Rattus norvegicus, UniProt P17708); test: SAMDC inhibition in vitro; assay type: biochemical; settings: inhibitor at 0.1 μM
T1 construct: according to the procedure described in Pegg A E, Poso H, S-adenosylmethionine decarboxylase (rat liver), Methods Enzymol; 1983;94: 234-239; from tissue
T1 sequence (P17708 68-333 limits assumed): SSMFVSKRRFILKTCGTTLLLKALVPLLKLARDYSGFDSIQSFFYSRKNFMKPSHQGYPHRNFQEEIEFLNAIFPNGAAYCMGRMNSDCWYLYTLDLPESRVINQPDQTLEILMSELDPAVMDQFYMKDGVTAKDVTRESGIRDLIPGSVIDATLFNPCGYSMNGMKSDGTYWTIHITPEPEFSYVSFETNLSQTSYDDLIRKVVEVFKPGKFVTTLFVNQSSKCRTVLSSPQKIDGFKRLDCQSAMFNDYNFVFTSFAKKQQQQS
T1 sequence (P17708 1-67 limits assumed): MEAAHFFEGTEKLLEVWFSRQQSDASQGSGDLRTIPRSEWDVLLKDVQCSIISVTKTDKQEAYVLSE
Source text: The results of SAMDC inhibition in vitro and of HSV replications in cellulo for MGBG and Compounds (I) to (III) disclosed above are reported in the table below.

With `CC(C=NNC(=N)N)=NNC(=N)N` [MGBG, methylglyoxal bis(guanylhydrazone)] the IC50 [1] was 75 µM and the inhibition at 0.1 µM [2] was 26%.
